Several values for one entry are separate records, joined by “and”; a condition that tells them apart may be missing. Equal values may be shown once. Inconclusive results and toxic doses are left out. Rule as the data show it: active = T/C of 150% or more; inactive = T/C below 125%.
Test system: L1210 leukemia ip in BDF1 mice, survival T/C
Test: NCI In Vivo Anticancer Drug Screen. Data for tumor model L1210 Leukemia (intraperitoneal) in B6D2F1 (BDF1) mice
Settings: endpoint: mean survival time, higher = longer survival
Outline: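 Mice bearing the transplanted tumor received compound or vehicle. Survival of the treated group was divided by that of the vehicle-treated control group to give the ratio.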

[1] = dose: 100.0 mg/kg/injection, schedule: Q01DX009 (ip), vehicle: Klucel (hydroxypropylcellulose) (HPC)
[2] = dose: 150.0 mg/kg/injection, schedule: Q01DX001 (ip), vehicle: carboxymethylcellulose (CMC)
[3] = dose: 200.0 mg/kg/injection, schedule: Q01DX009 (ip), vehicle: Klucel (hydroxypropylcellulose) (HPC)
[4] = dose: 100.0 mg/kg/injection, schedule: Q01DX001 (ip), vehicle: saline
[5] = dose: 100.0 mg/kg/injection, schedule: Q04DX003 (ip), vehicle: saline
[6] = dose: 200.0 mg/kg/injection, schedule: Q01DX001 (ip), vehicle: saline
[7] = dose: 200.0 mg/kg/injection, schedule: Q04DX003 (ip), vehicle: saline
[8] = dose: 400.0 mg/kg/injection, schedule: Q01DX001 (ip), vehicle: saline
[9] = dose: 100.0 mg/kg/injection, schedule: Q04DX002 (ip), vehicle: saline
[10] = dose: 200.0 mg/kg/injection, schedule: Q04DX002 (ip), vehicle: saline
[11] = dose: 50.0 mg/kg/injection, schedule: Q01DX001 (ip), vehicle: carboxymethylcellulose (CMC)
[12] = dose: 100.0 mg/kg/injection, schedule: Q01DX001 (ip), vehicle: carboxymethylcellulose (CMC)
[13] = dose: 200.0 mg/kg/injection, schedule: Q01DX001 (ip), vehicle: carboxymethylcellulose (CMC)
[14] = dose: 400.0 mg/kg/injection, schedule: Q01DX001 (ip), vehicle: carboxymethylcellulose (CMC)
[15] = dose: 100.0 mg/kg/injection, schedule: Q01DX009 (ip), vehicle: saline
[16] = dose: 200.0 mg/kg/injection, schedule: Q01DX009 (ip), vehicle: saline

Measured: T/C

C[CH2][Ge]([CH2]C)([CH2]C)[CH2]CO
inactive: dose: 5.0 mg/kg/injection, schedule: Q04DX002 (ip), vehicle: saline with Tween-80 103 % of control | dose: 10.0 mg/kg/injection, schedule: Q04DX002 (ip), vehicle: saline with Tween-80 106 % of control | dose: 20.0 mg/kg/injection, schedule: Q04DX002 (ip), vehicle: saline with Tween-80 103 % of control

Nn1c2ccccc2c2ccccc21
inactive: dose: 50.0 mg/kg/injection, schedule: Q01DX009 (ip), vehicle: Klucel (hydroxypropylcellulose) (HPC) 103 % of control | dose: 75.0 mg/kg/injection, schedule: Q01DX001 (ip), vehicle: carboxymethylcellulose (CMC) 101 % of control | [1] 103 % of control | [2] 104 % of control | [3] 92 % of control | dose: 300.0 mg/kg/injection, schedule: Q01DX001 (ip), vehicle: carboxymethylcellulose (CMC) 96 % of control

COc1cc(/C=C(/NC(=O)c2ccccc2)C(=O)O)ccc1O
inactive: [4] 94 % of control | [5] 96 % of control | [6] 89 % of control | [7] 97 % of control | [8] 96 % of control | dose: 400.0 mg/kg/injection, schedule: Q04DX003 (ip), vehicle: saline 88 % of control

CC(C)(N)CCC(C)(C)NCCCN
inactive: dose: 100.0 mg/kg/injection, schedule: Q01DX009 (ip), vehicle: water 95 % of control | dose: 100.0 mg/kg/injection, schedule: Q04DX003 (ip), vehicle: water 100 % of control | dose: 200.0 mg/kg/injection, schedule: Q01DX009 (ip), vehicle: water 98 % of control | dose: 200.0 mg/kg/injection, schedule: Q04DX003 (ip), vehicle: water 106 % of control | dose: 400.0 mg/kg/injection, schedule: Q04DX003 (ip), vehicle: water 97 % of control

CC(=O)CCC[CH2][Sn]([c]1ccccc1)([c]1ccccc1)[c]1ccccc1
inactive: dose: 100.0 mg/kg/injection, schedule: Q04DX002 (ip), vehicle: saline with Tween-80 102 % of control | dose: 200.0 mg/kg/injection, schedule: Q04DX002 (ip), vehicle: saline with Tween-80 91 % of control | dose: 400.0 mg/kg/injection, schedule: Q04DX002 (ip), vehicle: saline with Tween-80 97 % of control

CCN(CC)Cc1ccccc1COC(=O)c1ccc(OC)cc1
inactive: [9] 103 % of control | [10] 103 % of control

O=C1C(=O)c2cc(Cl)ccc2-c2ccc(Cl)cc21
inactive: [11] 97 % of control | [12] 106 % of control | [13] 103 % of control | [14] 97 % of control

Cc1c2cnccc2c(C)c2c1c1ccccc1n2C(C)C
inactive: dose: 37.5 mg/kg/injection, schedule: Q04DX003 (ip), vehicle: saline 100 % of control | dose: 62.5 mg/kg/injection, schedule: Q01DX009 (ip), vehicle: saline with Tween-80 110 % of control | dose: 75.0 mg/kg/injection, schedule: Q04DX003 (ip), vehicle: saline 101 % of control | dose: 150.0 mg/kg/injection, schedule: Q04DX003 (ip), vehicle: saline 104 % of control | dose: 300.0 mg/kg/injection, schedule: Q04DX003 (ip), vehicle: saline 124 % of control

COc1c(Cl)c(Cl)c(Cl)c(Cl)c1Cl
inactive: [15] 89 % of control | dose: 100.0 mg/kg/injection, schedule: Q04DX003 (ip), vehicle: acetone 95 % of control | [16] 89 % of control | dose: 200.0 mg/kg/injection, schedule: Q04DX003 (ip), vehicle: acetone 94 % of control | dose: 400.0 mg/kg/injection, schedule: Q04DX003 (ip), vehicle: acetone 96 % of control

CC1(N)COP(=O)(Nc2ccccc2)OC1 (stereo not drawn)
inactive: dose: 44.4 mg/kg/injection, schedule: Q01DX001 (ip), vehicle: carboxymethylcellulose (CMC) 101 % of control | dose: 66.7 mg/kg/injection, schedule: Q01DX001 (ip), vehicle: carboxymethylcellulose (CMC) 101 % of control | [2] 107 % of control | [13] 92 % of control | [14] 103 % of control

CCCCNC(=O)C1C2C=CC(CC2)C1C(=O)NCCCC (stereo not drawn)
inactive: dose: 100.0 mg/kg/injection, schedule: Q04DX003 (ip), vehicle: saline with Tween-80 104 % of control | dose: 200.0 mg/kg/injection, schedule: Q04DX003 (ip), vehicle: saline with Tween-80 100 % of control | dose: 400.0 mg/kg/injection, schedule: Q04DX003 (ip), vehicle: saline with Tween-80 96 % of control

CCC(CC)C(=O)O.[Ag]
inactive: [4] 101 % of control

C=CSCCCCCCCC
inactive: dose: 100.0 mg/kg/injection, schedule: Q04DX003 (ip), vehicle: other 103 % of control | dose: 200.0 mg/kg/injection, schedule: Q04DX003 (ip), vehicle: other 97 % of control | dose: 400.0 mg/kg/injection, schedule: Q04DX003 (ip), vehicle: other 97 % of control

CCOC(=O)CSCn1ncc2ccc([N+](=O)[O-])cc21
inactive: dose: 100.0 mg/kg/injection, schedule: Q01DX001 (ip), vehicle: other 95 % of control | dose: 200.0 mg/kg/injection, schedule: Q01DX001 (ip), vehicle: other 95 % of control | dose: 400.0 mg/kg/injection, schedule: Q01DX001 (ip), vehicle: other 97 % of control

CCOC(=O)C(C)(CCC#N)C(=O)OCC
inactive: [4] 95 % of control | [9] 101 % of control | [6] 95 % of control | [10] 105 % of control | [8] 95 % of control | dose: 400.0 mg/kg/injection, schedule: Q04DX002 (ip), vehicle: saline 105 % of control

N#CCOc1ccc(Cl)cc1
inactive: dose: 6.25 mg/kg/injection, schedule: Q01DX009 (ip), vehicle: Klucel (hydroxypropylcellulose) (HPC) 96 % of control | dose: 12.5 mg/kg/injection, schedule: Q01DX009 (ip), vehicle: Klucel (hydroxypropylcellulose) (HPC) 97 % of control | dose: 25.0 mg/kg/injection, schedule: Q01DX009 (ip), vehicle: Klucel (hydroxypropylcellulose) (HPC) 95 % of control and 108 % of control | dose: 100.0 mg/kg/injection, schedule: Q04DX002 (ip), vehicle: Klucel (hydroxypropylcellulose) (HPC) 87 % of control

O=C1NCCCC1C(=O)Nc1cccc2c1NCCC2 (stereo not drawn)
inactive: dose: 100.0 mg/kg/injection, schedule: Q01DX001 (ip), vehicle: Klucel (hydroxypropylcellulose) (HPC) 105 % of control | dose: 200.0 mg/kg/injection, schedule: Q01DX001 (ip), vehicle: Klucel (hydroxypropylcellulose) (HPC) 94 % of control | dose: 400.0 mg/kg/injection, schedule: Q01DX001 (ip), vehicle: Klucel (hydroxypropylcellulose) (HPC) 105 % of control

Oc1ccc(/C=N/NC(=S)NN2CCOCC2)nc1
inactive: dose: 6.25 mg/kg/injection, schedule: Q01DX009 (ip), vehicle: saline with Tween-80 108 % of control | dose: 12.5 mg/kg/injection, schedule: Q01DX009 (ip), vehicle: saline with Tween-80 116 % of control | dose: 22.0 mg/kg/injection, schedule: Q04DX002 (ip), vehicle: saline with Tween-80 108 % of control | dose: 25.0 mg/kg/injection, schedule: Q01DX009 (ip), vehicle: saline with Tween-80 108 % of control and 119 % of control | dose: 33.0 mg/kg/injection, schedule: Q04DX002 (ip), vehicle: saline with Tween-80 101 % of control | dose: 50.0 mg/kg/injection, schedule: Q04DX002 (ip), vehicle: saline with Tween-80 111 % of control

C(=Nc1ccccc1)c1ccccc1
inactive: [11] 98 % of control | [12] 96 % of control | [15] 98 % of control | [5] 104 % of control | [13] 91 % of control | [16] 100 % of control | [7] 105 % of control | [14] 91 % of control

C=CCCCCCCCCC(=O)N/N=C/c1cccs1
inactive: [1] 95 % of control | [3] 100 % of control | dose: 400.0 mg/kg/injection, schedule: Q01DX009 (ip), vehicle: Klucel (hydroxypropylcellulose) (HPC) 105 % of control

OCC1OC(n2cc(Cl)c3cncnc32)C(O)C1O (stereo not drawn)
inactive: dose: 50.0 mg/kg/injection, schedule: Q01DX005 (ip), vehicle: saline 101 % of control

CCOC(=O)C(C(C)=O)C(c1ccc(O)cc1)C(C(C)=O)C(=O)OCC (stereo not drawn)
inactive: [4] 93 % of control | [6] 86 % of control | [8] 87 % of control

Source: PubChem BioAssay AID248 (DTP/NCI, 2004)
